Laboratory results as given in patent publication US10202361B2, “Pyridazinones as herbicides” (E I DU PONT DE NEMOURS AND COMPANY, priority 2014, dated 2019).

Columns and labels:
Assay in all cases: Test D pre-/postemergence controlled growth environment herbicide test
Assay type in all cases: in vivo
Details in all cases: scale 0 to 100
[1] = system: pigweed (Amaranthus retroflexus)
Excerpt: (§1) Seeds of plant species selected from bluegrass (annual bluegrass, Poa annua), blackgrass (Alopecurus myosuroides), canarygrass (Phalaris minor), chickweed (common chickweed, Stellaria media), galium (catchweed bedstraw, Galium aparine), downy bromegrass (Bromus tectorum), field poppy (Papaver rhoeas), field violet (Viola arvensis), foxtail, green (green foxtail, Setaria viridis), deadnettle (henbit deadnettle, Lamium amplexicaule), ryegrass, Italian (Italian ryegrass, Lolium multiflorum), kochia (Kochia scoparia), lambsquarters (Chenopodium album), oilseed rape (Brassica napus), pigweed (Amaranthus retroflexus), chamomile (scentless chamomile, Matricaria inodora), Russian thistle (Salsola kali), speedwell (bird's-eye speedwell, Veronica persica), barley, spring (spring barley, Hordeum vulgare), wheat, spring (spring wheat, Triticum aestivum), buckwheat, wild (wild buckwheat, Polygonum convolvulus), mustard, wild (wild mustard, Sinapis arvensis), oat, wild (wild oat, Avena fatua), radish, wild (wild radish, Raphanus raphanistrum), windgrass (Apera spica-venti), barley, winter (winter barley, Hordeum vulgare), and wheat, winter (winter wheat, Triticum aestivum) were planted into a silt loam soil and treated preemergence with test chemicals formulated in a non-phytotoxic solvent mixture which included a surfactant.
(§2) At the same time, these species were planted in pots containing Redi-Earth® planting medium (Scotts Company, 14111 Scottslawn Road, Marysville, Ohio 43041) comprising spaghnum peat moss, vermiculite, wetting agent and starter nutrients and treated with postemergence applications of the test chemicals formulated in the same manner. Plants ranged in height from 2 to 18 cm (1- to 4-leaf stage). Treated plants and controls were maintained in a controlled growth environment for 14 to 21 d after which time all species were compared to controls and visually evaluated. Plant response ratings, summarized in Table D, are based on a scale of 0 to 100 where 0 is no effect and 100 is complete control. A dash (-) response means no test result.

[2] = system: mustard, wild (wild mustard, Sinapis arvensis)
Excerpt: as §1, §2

[3] = system: oat, wild (wild oat, Avena fatua)
Excerpt: as §1, §2

[4] = system: oilseed rape (Brassica napus)
Excerpt: as §1, §2

[5] = system: galium (catchweed bedstraw, Galium aparine)
Excerpt: as §1, §2

[6] = system: field poppy (Papaver rhoeas)
Excerpt: as §1, §2

kochia (Kochia scoparia) = system: kochia (Kochia scoparia)
Excerpt: as §1, §2

[7] = system: Russian thistle (Salsola kali)
Excerpt: as §1, §2

[8] = system: ryegrass, Italian (Italian ryegrass, Lolium multiflorum)
Excerpt: as §1, §2

[9] = system: bluegrass (annual bluegrass, Poa annua)
Excerpt: as §1, §2

[10] = system: wheat, spring (spring wheat, Triticum aestivum)
Excerpt: as §1, §2

Compound `Cc1cc(=O)n(-c2ccc(C(F)(F)F)cc2)nc1Cc1ccnc(C(F)(F)F)c1` [Compound 2, 5-methyl-2-[4-(trifluoromethyl)phenyl]-6-[[2-(trifluoromethyl)-4-pyridinyl]methyl]-3(2H)-pyridazinone] has a Plant response rating ([1]; Postemergence, 31 g ai/ha) of 20, a Plant response rating ([1]; Postemergence, 62 g ai/ha) of 20 and a Plant response rating ([1]; Postemergence, 125 g ai/ha) of 20. For the same compound, the Plant response rating ([1]; Postemergence, 250 g ai/ha) was 30, the Plant response rating ([1]; Postemergence, 500 g ai/ha) was 30 and the Plant response rating ([1]; Preemergence, 31 g ai/ha) was 30. For the same compound, the Plant response rating ([1]; Preemergence, 62 g ai/ha) was 60, the Plant response rating ([1]; Preemergence, 125 g ai/ha) was 70 and the Plant response rating ([1]; Preemergence, 250 g ai/ha) was 85. The Plant response rating ([1]; Preemergence, 500 g ai/ha) was 100, the Plant response rating ([2]; Postemergence, 31 g ai/ha) was 10 and the Plant response rating ([2]; Postemergence, 62 g ai/ha) was 70. For the same compound, the Plant response rating ([2]; Postemergence, 125 g ai/ha) was 80, the Plant response rating ([2]; Postemergence, 250 g ai/ha) was 100 and the Plant response rating ([2]; Postemergence, 500 g ai/ha) was 100. It also gave a Plant response rating ([2]; Preemergence, 31 g ai/ha) of 0, a Plant response rating ([2]; Preemergence, 62 g ai/ha) of 100 and a Plant response rating ([2]; Preemergence, 125 g ai/ha) of 100. The Plant response rating ([2]; Preemergence, 250 g ai/ha) was 100, the Plant response rating ([2]; Preemergence, 500 g ai/ha) was 100 and the Plant response rating ([3]; Postemergence, 31 g ai/ha) was 10. The Plant response rating ([3]; Postemergence, 62 g ai/ha) was 10, the Plant response rating ([3]; Postemergence, 125 g ai/ha) was 10 and the Plant response rating ([3]; Postemergence, 250 g ai/ha) was 15. It also gave a Plant response rating ([3]; Postemergence, 500 g ai/ha) of 30, a Plant response rating ([3]; Preemergence, 31 g ai/ha) of 0 and a Plant response rating ([3]; Preemergence, 62 g ai/ha) of 0. For the same compound, the Plant response rating ([3]; Preemergence, 125 g ai/ha) was 35, the Plant response rating ([3]; Preemergence, 250 g ai/ha) was 80 and the Plant response rating ([3]; Preemergence, 500 g ai/ha) was 80. For the same compound, the Plant response rating ([4]; Postemergence, 31 g ai/ha) was 60, the Plant response rating ([4]; Postemergence, 62 g ai/ha) was 75 and the Plant response rating ([4]; Postemergence, 125 g ai/ha) was 80. The Plant response rating ([4]; Postemergence, 250 g ai/ha) was 98, the Plant response rating ([4]; Postemergence, 500 g ai/ha) was 100 and the Plant response rating ([4]; Preemergence, 31 g ai/ha) was 20. The Plant response rating ([4]; Preemergence, 62 g ai/ha) was 20, the Plant response rating ([4]; Preemergence, 125 g ai/ha) was 50 and the Plant response rating ([4]; Preemergence, 250 g ai/ha) was 95. The Plant response rating ([4]; Preemergence, 500 g ai/ha) was 95, the Plant response rating ([5]; Postemergence, 31 g ai/ha) was 40 and the Plant response rating ([5]; Postemergence, 62 g ai/ha) was 40. The Plant response rating ([5]; Postemergence, 125 g ai/ha) was 50, the Plant response rating ([5]; Postemergence, 250 g ai/ha) was 75 and the Plant response rating ([5]; Postemergence, 500 g ai/ha) was 85. For the same compound, the Plant response rating ([5]; Preemergence, 31 g ai/ha) was 0, the Plant response rating ([5]; Preemergence, 125 g ai/ha) was 75 and the Plant response rating ([5]; Preemergence, 250 g ai/ha) was 100. The Plant response rating ([5]; Preemergence, 500 g ai/ha) was 100, the Plant response rating ([6]; Postemergence, 31 g ai/ha) was 25 and the Plant response rating ([6]; Postemergence, 62 g ai/ha) was 75. For the same compound, the Plant response rating ([6]; Postemergence, 125 g ai/ha) was 100, the Plant response rating ([6]; Postemergence, 250 g ai/ha) was 80 and the Plant response rating ([6]; Postemergence, 500 g ai/ha) was 100. For the same compound, the Plant response rating ([6]; Preemergence, 31 g ai/ha) was 100, the Plant response rating ([6]; Preemergence, 62 g ai/ha) was 100 and the Plant response rating ([6]; Preemergence, 125 g ai/ha) was 100. The Plant response rating ([6]; Preemergence, 250 g ai/ha) was 100, the Plant response rating ([6]; Preemergence, 500 g ai/ha) was 100 and the Plant response rating (kochia (Kochia scoparia); Postemergence, 31 g ai/ha) was 40. For the same compound, the Plant response rating (kochia (Kochia scoparia); Postemergence, 62 g ai/ha) was 70, the Plant response rating (kochia (Kochia scoparia); Postemergence, 125 g ai/ha) was 80 and the Plant response rating (kochia (Kochia scoparia); Postemergence, 250 g ai/ha) was 85. It also gave a Plant response rating (kochia (Kochia scoparia); Postemergence, 500 g ai/ha) of 85, a Plant response rating (kochia (Kochia scoparia); Preemergence, 31 g ai/ha) of 20 and a Plant response rating (kochia (Kochia scoparia); Preemergence, 62 g ai/ha) of 30. The Plant response rating (kochia (Kochia scoparia); Preemergence, 125 g ai/ha) was 100, the Plant response rating (kochia (Kochia scoparia); Preemergence, 250 g ai/ha) was 100 and the Plant response rating (kochia (Kochia scoparia); Preemergence, 500 g ai/ha) was 100. The Plant response rating ([7]; Postemergence, 62 g ai/ha) was 25, the Plant response rating ([7]; Postemergence, 250 g ai/ha) was 80 and the Plant response rating ([7]; Postemergence, 500 g ai/ha) was 100. The Plant response rating ([7]; Preemergence, 62 g ai/ha) was 0, the Plant response rating ([7]; Preemergence, 125 g ai/ha) was 100 and the Plant response rating ([7]; Preemergence, 250 g ai/ha) was 100. It also gave a Plant response rating ([7]; Preemergence, 500 g ai/ha) of 100, a Plant response rating ([8]; Postemergence, 31 g ai/ha) of 0 and a Plant response rating ([8]; Postemergence, 62 g ai/ha) of 10. The Plant response rating ([8]; Postemergence, 125 g ai/ha) was 15, the Plant response rating ([8]; Postemergence, 250 g ai/ha) was 20 and the Plant response rating ([8]; Postemergence, 500 g ai/ha) was 25. It also gave a Plant response rating ([8]; Preemergence, 31 g ai/ha) of 0, a Plant response rating ([8]; Preemergence, 62 g ai/ha) of 0 and a Plant response rating ([8]; Preemergence, 125 g ai/ha) of 25. For the same compound, the Plant response rating ([8]; Preemergence, 250 g ai/ha) was 30, the Plant response rating ([8]; Preemergence, 500 g ai/ha) was 35 and the Plant response rating ([9]; Postemergence, 31 g ai/ha) was 10. For the same compound, the Plant response rating ([9]; Postemergence, 62 g ai/ha) was 15, the Plant response rating ([9]; Postemergence, 125 g ai/ha) was 20 and the Plant response rating ([9]; Postemergence, 250 g ai/ha) was 20. The Plant response rating ([9]; Postemergence, 500 g ai/ha) was 30, the Plant response rating ([9]; Preemergence, 31 g ai/ha) was 0 and the Plant response rating ([9]; Preemergence, 62 g ai/ha) was 0. It also gave a Plant response rating ([9]; Preemergence, 125 g ai/ha) of 10, a Plant response rating ([9]; Preemergence, 250 g ai/ha) of 30 and a Plant response rating ([9]; Preemergence, 500 g ai/ha) of 100. For the same compound, the Plant response rating ([10]; Postemergence, 31 g ai/ha) was 10, the Plant response rating ([10]; Postemergence, 62 g ai/ha) was 10 and the Plant response rating ([10]; Postemergence, 125 g ai/ha) was 10. The Plant response rating ([10]; Postemergence, 250 g ai/ha) was 15, the Plant response rating ([10]; Postemergence, 500 g ai/ha) was 20 and the Plant response rating ([10]; Preemergence, 31 g ai/ha) was 0. For the same compound, the Plant response rating ([10]; Preemergence, 62 g ai/ha) was 0, the Plant response rating ([10]; Preemergence, 125 g ai/ha) was 15 and the Plant response rating ([10]; Preemergence, 250 g ai/ha) was 30. For the same compound, the Plant response rating ([10]; Preemergence, 500 g ai/ha) was 50.
